Laboratory results: US20080009451A1, “Applications of kidney secreted bone growth factor and pharmaceutical use of flavonol and flavonol glycosides for stimulating the secretion of kidney secreted bone growth factor” (priority 2005, published 2008)
Entries after “also recorded” stand apart in the source; their conditions may differ.

How the values were obtained:
[1] = system: opossum kidney (OK) cell; assay: Renal tubular (OK) cell proliferation, CellTiter 96 at OD570; type: cell-based; conditions: compound added to OK cells, 0-60 nM (0-79 nM) or various concentrations, three days incubation (24 hours in Example 3.2)
Method: Flavonol Increased Renal Tubular Cell Proliferation Ok cells at 1×10^4/ml (0.1 ml) were added into 96 wells plate. Several flavonol ? Fisetin, ? Kaempferol, ? quercetin a ? ? icariin or the control flavonoid (which are not flavonol) such as apigenin and kaempferol-3-methyl ether were added to make the final concentration at 0-60 nM. (0-79 nM)
After three days incubation, the cell growth was examined with CellTiter 96 (Non-Radioactive Cell Proliferation Assay kit) (Promega) at OD570 nm. The higher OD, the higher the numbers of living cells. (FIG. 2.)
OK cell, MC 3T3 E1 and HHF cells at 2×10^4/ml (0.1 ml) were added into 96 well plates, with various concentration of kaempferol was applied. After the cells were cultured for 3 days, cell growth was examined.
Preparation of OKM and CM: OK cells at 2×10^4/ml (0.1 ml) mixed with various concentrations of kaempferol were incubated in 96 well plate. The medium made of the same condition as above without OK cells was also incubated in the 96 well plates. After 24 hour, the mediums were collected. The OK cell growth was examined.

[2] = system: human heart fibroblast (HHF/HFF); assay: Fibroblast proliferation in OK cell conditioned medium (OKM); type: cell-based; conditions: OK cells incubated 24 hours with compound; medium on human heart fibroblast; 3 days
Method: (§1) In this example, OK cells were used as the kidney tubular cell. OK cells at 6×10^4ml (3 ml) were added into 6 wells plate and various concentrations of flavonol, flavonol glycosides, apigenin and isokaempferol were applied. At the same time, the control culture medium (CM) with the same condition as above but without cells was prepared. After 24 hours incubation, the medium was collected for osteoblast culture. The OK cell growth was examined as discussed above. The preparation of OKM and CM: OK cells at 6×10^4/ml (3 ml) were incubated in 6 well plates over night. After the medium was removed, the fresh medium with or without 70 nM kaempferol was added. The control medium (CM) was prepared under the same condition, without OK cells. After incubation for 24 hour, all medium were collected for MC 3T3 E1 and HFF cell growth experiments. MC 3T3 E1 and HFF cell at 1×10^5/ml were added (20 μl) into 96 well plates. In addition, 80 μl of OKM, CM and fresh culture medium with and without kaempferol were applied.

[3] = system: MC 3T3 E1 cell (osteoblast); assay: Osteoblast proliferation in OK cell conditioned medium (OKM); type: cell-based; conditions: OK cells incubated 24 hours with compound, 80 μl medium on MC 3T3 E1, 3 days
Method: as §1, with “above. In this example, the osteoblast was the MC 3T3 E1 cell. MC 3T3 E1 at 1×10^5/ml (20 μl) was added into 96 wells plate. Additionally, 80 μL of OKM or CM were recruited. After 3 days incubation, the osteoblast growth was examined as discussed above. […] OK cells at 2×10^4/ml (0.1 ml) mixed with various concentrations of kaempferol were incubated in 96 well plate. The medium made of the same condition as above without OK cells was also incubated in the 96 well plates. After 24 hour, the mediums were collected. The OK cell growth was examined. MC 3T3 E1 cells at 1×10^5/ml (20 μl) were applied into 96 well plate along with OKM and CM (80 μl). After 3 days incubation, the cell numbers were examined.” for “above.”

[4] = system: P63; assay: P63 (63 kDa protein) in kaempferol conditioned OKM, over-exposed anti-BMP2/4 Western blot; type: cell-based, opossum; conditions: over-exposed film; not been repeated yet
Excerpt: Detail of Immune-Precipitation and Detail of Western Blot Used Standard Methods and Anti-BMP 2/4 and 7. 3). […] According to the instruction from the manufacture, anti-BMP2/4 antibody may react with BMP8, 9 and 10 or other proteins. The P63 may be BMP 8, 9, 10 or another protein related to the BMP2/4.

[5] = system: HHF cells (human heart fibroblast); assay: Direct effect of compound on fibroblast proliferation; type: cell-based; conditions: medium incubated without kidney cells; 70 nM kaempferol; 3 days
Method: (§2) OK cell, MC 3T3 E1 and HHF cells at 2×10^4/ml (0.1 ml) were added into 96 well plates, with various concentration of kaempferol was applied. After the cells were cultured for 3 days, cell growth was examined. The preparation of OKM and CM: OK cells at 6×10^4/ml (3 ml) were incubated in 6 well plates over night. After the medium was removed, the fresh medium with or without 70 nM kaempferol was added. The control medium (CM) was prepared under the same condition, without OK cells. After incubation for 24 hour, all medium were collected for MC 3T3 E1 and HFF cell growth experiments. MC 3T3 E1 and HFF cell at 1×10^5/ml were added (20 μl) into 96 well plates. In addition, 80 μl of OKM, CM and fresh culture medium with and without kaempferol were applied.

[6] = system: MC 3T3 E1 cell (osteoblast); assay: Direct effect of compound on osteoblast proliferation; type: cell-based; conditions: medium incubated without kidney cells; 70 nM or various concentrations; 3 days
Method: as §2

[7] = system: MC 3T3 E1 cell (osteoblast); assay: Osteoblast proliferation in human kidney tubular cell (HK-2) conditioned medium (HKM); type: cell-based; conditions: HK-2 cells, 70 nM kaempferol, 24 hours; medium on MC 3T3 E1 for 3 days
Method: Human kidney tubular cells (HK-2) with the concentration at 1×10^5/ml (1 mL) grew in 24 well plate overnight. The cells in the wells were washed by 1 mL of PBS three times. Fresh culture medium (80 μL) without FBS but contained 0 and 70 nM kaempferol were added. The same medium without cells also prepared as above. After the samples were cultured for 24 hours, the medium was collected and named respectively 70 […] 0CM. They were used for osteoblast and fibroblast culture. MC 3T3 E1 and HFF cell at 1×10^5/ml were added (20 μl) into 96 wells plate. In addition, 80 μl of 70 […] 0CM were applied.

[8] = system: BMP7; assay: BMP7 in kaempferol conditioned OKM, immune-precipitation and Western blot; type: cell-based, opossum; conditions: Western blot; not been repeated yet
Excerpt: (§3) Detail of Immune-Precipitation and Detail of Western Blot Used Standard Methods and Anti-BMP 2/4 and 7.

[9] = system: BMP2/4; assay: BMP2/4 in kaempferol conditioned OKM, immune-precipitation and Western blot; type: cell-based, opossum; conditions: Western blot; not been repeated yet
Excerpt: as §3

[10] = system: BMPR II; assay: BMPR II on OK cells, immunostain and Western blot; type: cell-based, opossum
Excerpt: BMPR I was not found in OK cells sample, BMPR II was found on OK cell. […] Both FIGS. 6A and 6B indicate that kaempferol increases the quantity of BMPR II on OK cell.

[11] = animal models; cited from earlier work
[12] = acute renal ischemia, unilateral uretheral obstruction, diabetic nephropathy, lupus nephritis models; cited from earlier work

O=c1cc(-c2ccc(O)cc2)oc2cc(O)cc(O)c12 [Apigenin, apigenin]
OK cell proliferation (optic density) [1]: did not increase OK cell proliferation | OK cell proliferation (optic density) ([1]; listed as apigenin): showed no effect | fibroblast proliferation in compound conditioned-OKM [2]: do not increase human heard fibroblast proliferation | osteoblast (MC 3T3 E1) proliferation in compound conditioned-OKM compared with control OKM [3]: did not increase osteoblast proliferation

O=c1c(O)c(-c2ccc(O)cc2)oc2cc(O)cc(O)c12 [Kaempferol]
quantity of P63 in OKM [4]: increased with dose response of kaempferol; also recorded: also increased with the dose of kaempferol | OK cell proliferation (optic density) [1]: only increased OK cell proliferation | OK cell proliferation (optic density) ([1]; listed as kaempferol): significantly increased; also recorded: showed dose response aspect | fibroblast (HHF) proliferation in control medium (CM) or fresh medium containing compound [5]: did not increase human fibroblast proliferation; also recorded: did not promote MC 3T3 E1 and HHF cell proliferation | MC 3T3 E1 proliferation in control medium (CM) or fresh medium containing compound [6]: did not promote MC 3T3 E1 and HHF cell proliferation | MC 3T3 E1 proliferation in kaempferol conditioned HKM compared with 0HKM [7]: increased the promotion; also recorded: additionally increases the promotion | quantity of BMP7 in OKM [8]: increased by dose response of kaempferol; also recorded: increased in dose response to kaempferol concentration | fibroblast proliferation in compound conditioned-OKM [2]: also did not promote HHF cell proliferation | osteoblast (MC 3T3 E1) proliferation in compound conditioned-OKM compared with control OKM [3]: increasing osteoblast proliferation with a dose response manner; also recorded: additionally promoted MC 3T3 E1 cell proliferation | osteoblast (MC 3T3 E1) proliferation in compound conditioned-OKM compared with control OKM ([3]; listed as kaempferol): significantly increased compared with that in the control OKM | quantity of BMP2/4 in OKM [9]: increased by dose response of kaempferol | quantity of BMPR II on OK cells (Western blot) ([10]; Western blot with anti-BMPR II): increased the quantity of BMPR II on OK cells | density of BMPR II on OK cells (immunostain) ([10]; immunostain with anti-BMP receptor II): increased the density of BMPR II on OK cells

COc1c(-c2ccc(O)cc2)oc2cc(O)cc(O)c2c1=O [isokaempferol, kaempferol-3-methyl ether]
OK cell proliferation (optic density) [1]: did not increase OK cell proliferation | OK cell proliferation (optic density) ([1]; listed as kaempferol-3-methyl ether): showed no effect | fibroblast proliferation in compound conditioned-OKM [2]: do not increase human heard fibroblast proliferation | osteoblast (MC 3T3 E1) proliferation in compound conditioned-OKM compared with control OKM [3]: did not increase osteoblast proliferation

B1: BMP-7: Bone Morphogenic Protein 7, secreted protein (protein, UniProt P18075 293-431, looked up)
Bone morphogenetic protein 7: STGSKQRSQNRSKTPKNQEALRMANVAENSSSDQRQACKKHELYVSFRDLGWQDWIIAPEGYAAYYCEGECAFPLNSYMNATNHAIVQTLVHFINPETVPKPCCAPTQLNAISVLYFDDSSNVILKKYRNMVVRACGCH
effect on osteoporosis associated with renal failure [11]: benefit | prevention of renal failure [12]: prevent renal failure
